The values below come from ChEMBL document CHEMBL5728228, “Inhibitors of cyclin-dependent kinases” (2021).

A short description of the test: Protein kinase assay (Condition B: Thiol-free Conditions): The IC50 profile of compounds was determined using one protein kinase in a customized, thiol free assay. […] Prior to testing, the 1×10−03 M stock solutions in column 2 of the master plates were subjected to a serial, semi-logarithmic dilution using 100% DMSO as a solvent. […] Column 1 and 7 were filled with 100% DMSO as controls. Subsequently, 2×10 microliter from each well of the serial diluted copy plates were aliquoted with a 96 channel pipettor into two identical sets of “compound dilution plates”. All plates were barcoded for automated identification and tracking purposes. […] All compounds were stored as powder until being solubilized in DMSO. Solubilized compounds were stored as 1×10−02 M/100% DMSO stock solutions. Prior to the assay process, 90 microliters of H2O were added to each well of a set of compound dilution plates. To minimize potential precipitation, the H2O was added to each plate only a few minutes before the transfer of the compound solutions into the assay plates. Each plate was shaken thoroughly, resulting in compound dilution plates with a final of 10% DMSO. For each assay, 5 microliters of solution from each well of the compound dilution plates/10% DMSO were transferred into the assay plate. The final volume of the assay was 50 μl. All compounds were tested at 10 final assay concentrations in the range from 1×10−05 M to 3×10−10 M, in singlicate. The final DMSO concentration in the reaction cocktails was 1% in all cases. A radiometric protein kinase assay (33PanQinase® Activity Assay) was used for measuring the kinase activity of the protein kinase. All kinase assays were performed in 96-well FlashPlates™ from PerkinElmer (Boston, Mass., USA) in a 50 microliter reaction volume. The reaction cocktail was pipetted in four steps in the following order: 20 microliter of assay buffer (standard buffer)·5 microliter of ATP solution (in H2O)·5 microliter of test compound (in 10% DMSO)·20 microliter enzyme/substrate mix. […] For all experiments labeled as “Thiol-free”, all glutathione was exchanged from protein preparations so as to be removed from the assay and final buffer conditions contained no thiol-containing reagents. This was done so there would be no interference with the key cysteines in the proteins of interest.

As to `C=CC(=O)Nc1ccc(C(=O)N2CC[C@@H](Nc3ncc(Cl)c(OC)n3)C2)cc1C`, the IC50 was under 100 nM.

On to `C=CC(=O)N(C)c1ccc(C(=O)N2CC[C@@H](Nc3ncc(Cl)c(OC)n3)C2)cc1`, for which the IC50 was under 100 nM.

Take `C=CC(=O)Nc1ccc(C(=O)N2CC[C@@H](Nc3cc(OC)c(Cl)cn3)C2)cc1`: the IC50 was under 100 nM.

The compound `C=CC(=O)Nc1ccc(C(=O)N2CC[C@@H](Nc3ncc(Br)c(OC)n3)C2)cc1` gave an IC50 of under 100 nM.

The compound `C=CC(=O)Nc1ccc(C(=O)N2CC[C@@H](Nc3ncc(Cl)c(OC)n3)C2)cc1` came in with an IC50 of under 100 nM.

Take `CCC(=O)Nc1ccc(C(=O)N2CC[C@@H](Nc3ncc(Br)c(OC)n3)C2)cc1`: the IC50 is under 100 nM.

For the compound `C=CC(=O)Nc1ccc(C(=O)N2CC[C@@H](Nc3ncc(Br)cn3)C2)cc1`, the IC50 is under 100 nM.
